Entries after “also recorded” stand apart in the source; their conditions may differ. Like-named read-outs stand apart in the source and are kept apart here. Marks after values point to notes of the source that are not given here.
Key:
[1] = set-up: method as in PMID 30845347; conditions: strong and moderate CYP3A inhibitors (itraconazole); cited from earlier work
[2] = Whole blood PK and whole blood/plasma partitioning after a single 1-h IV infusion of [^14C]-pevonedistat 25 mg/m^2 (part A); type: in vivo, human; conditions: for blood plasma ratio: whole blood and plasma, iv, 25 mg/m^2, single 1-h IV infusion 25 mg/m^2
Description: (§1) This was a two-part (A and B), open-label, multicenter, mass balance, distribution, metabolism, excretion (DME) study in adult patients with advanced solid tumors. […] Patients were required to stay at the part A study site for approximately 8 days or until the discharge criteria were met, with a maximum estimated confinement period of 9–14 days. Upon completion of part A, patients had the option to participate in part B at Medical Center Hungarian Defense Forces, Budapest, Hungary. […] Treatment was administered for 12 cycles or until discontinuation criteria were met.
(§2) Complete urinary and fecal output were collected for analysis of PK (urine) and total radioactivity (urine and feces) throughout the confinement period until discharge criteria were met. Bioanalytical assay methods are shown in the Supplementary Methods. […] In part B, disease assessments were conducted using radiological evaluations (computed tomography [CT] scan or magnetic resonance imaging [MRI], as clinically indicated).
(§3) Non-compartmental analysis using Phoenix™ WinNonlin® version 8.0 (Pharsight Corp., Mountain View, California, USA) was used for estimation of PK parameters for pevonedistat in whole blood, plasma, and urine and for total radioactivity in whole blood, plasma, urine, and feces. The following single-dose PK parameters were derived: maximum plasma concentration (Cmax), area under the concentration–time curve from time 0 to infinity (AUC∞), AUC from time 0 to the last quantifiable concentration (AUC0 − last), terminal disposition phase half-life (t1/2), renal clearance (CLR), clearance (CL), and volume of distribution at steady state (Vss).
(§4) PK data were summarized using descriptive statistics, and the PK and mass balance parameters described in Supplementary Table S1 were calculated by non-compartmental analysis for each individual patient. Safety was assessed in all patients who received at least one dose of pevonedistat, and TEAEs were coded according to the Medical Dictionary for Regulatory Activities (MedDRA), version 20.0. Analysis of efficacy in part B was descriptive; disease response was assessed in all patients who received at least one dose of pevonedistat, had measurable disease (per entry criteria for part B), and had at least one post-baseline disease assessment. Response assessment was done by the investigator using Response Evaluation Criteria in Solid Tumors (RECIST) version 1.1. SAS version 9.4 was used for all statistical analyses. […]
160 All samples were analyzed applying the methods described below:
After vortex mixing for at least 5 sec, the
170 Method for whole blood

CYP3A = test system: CYP3A; set-up: method as in PMID 30845347; conditions: in vitro; cited from earlier work
[3] = Safety (TEAEs, NCI CTCAE v4.03) after single dose of [^14C]-pevonedistat (part A); type: in vivo, human; conditions: for On-study deaths, patients: part A, N = 8
Procedure: This was a two-part (A and B), open-label, multicenter, mass balance, distribution, metabolism, excretion (DME) study in adult patients with advanced solid tumors. In part A, patients received a single IV infusion of [^14C]-pevonedistat 25 mg/m^2 (containing approximately 60–85 µCi, or 2.22–3.145 MBq, of total radioactivity) at a single center (Duna Medical Center, Budapest, Hungary). Patients were required to stay at the part A study site for approximately 8 days or until the discharge criteria were met, with a maximum estimated confinement period of 9–14 days. Upon completion of part A, patients had the option to participate in part B at Medical Center Hungarian Defense Forces, Budapest, Hungary. In part B, patients received treatment in 3-week cycles with either: pevonedistat 20 mg/m^2 on days 1, 3, and 5 plus carboplatin AUC5 and paclitaxel 175 mg/m^2 on day 1; or pevonedistat 25 mg/m^2 on days 1, 3, and 5 plus docetaxel 75 mg/m^2 on day 1. Treatment was administered for 12 cycles or until discontinuation criteria were met.
Blood samples were collected for total radioactivity and PK assessments in whole blood and plasma at prespecified time points (pre dose [within 1 h before the start of the pevonedistat infusion], end of infusion, then 0.5, 1, 2, 3, 4, 8, 12, 24, 48, 72, 96, 120, 144 and 168 hours post dose). Complete urinary and fecal output were collected for analysis of PK (urine) and total radioactivity (urine and feces) throughout the confinement period until discharge criteria were met. Bioanalytical assay methods are shown in the Supplementary Methods. Safety was assessed by incidence and severity of TEAEs, vital signs, physical examinations, electrocardiograms, and clinical laboratory tests, and toxicities were graded according to the National Cancer Institute Common Terminology Criteria for Adverse Events (NCI CTCAE), version 4.03. In part B, disease assessments were conducted using radiological evaluations (computed tomography [CT] scan or magnetic resonance imaging [MRI], as clinically indicated).
PK data were summarized using descriptive statistics, and the PK and mass balance parameters described in Supplementary Table S1 were calculated by non-compartmental analysis for each individual patient. Safety was assessed in all patients who received at least one dose of pevonedistat, and TEAEs were coded according to the Medical Dictionary for Regulatory Activities (MedDRA), version 20.0. Analysis of efficacy in part B was descriptive; disease response was assessed in all patients who received at least one dose of pevonedistat, had measurable disease (per entry criteria for part B), and had at least one post-baseline disease assessment. Response assessment was done by the investigator using Response Evaluation Criteria in Solid Tumors (RECIST) version 1.1. SAS version 9.4 was used for all statistical analyses.

[4] = Plasma PK after a single 1-h IV infusion of [^14C]-pevonedistat 25 mg/m^2 (part A); type: in vivo, human
Description: as §1, §2, §3, §4
160 All samples were analyzed applying the methods described below: […]

[5] = test system: human colon and lung tumor xenograft models; set-up: method as in PMID 19509147; conditions: repeated dosing, immunocompromised mice; cited from earlier work
[6] = human, whole blood, single 1-hr IV infusion 25 mg/m^2, geometric mean (CV), N = 7
[7] = human, plasma, single 1-h IV infusion 25 mg/m^2, geometric mean (CV), N = 7

NS(=O)(=O)OC[C@@H]1C[C@@H](n2ccc3c(N[C@H]4CCc5ccccc54)ncnc32)C[C@@H]1O [Pevonedistat]
effect of CYP3A inhibitors on pevonedistat exposure [1]: did not indicate clinically meaningful alterations in its PK; also recorded: did not result in clinically meaningful increases in pevonedistat exposure | clearance classification ([2]; based on whole blood CL vs hepatic blood flow): low clearance drug | blood plasma ratio ([2]; human, mean (SD), N = 7, read-out: Whole blood/plasma AUClast ratio): 42.2 | blood plasma ratio ([2]; human, mean (SD), N = 7, read-out: Whole blood/plasma AUC∞ ratio): 40.8 | blood plasma ratio ([2]; human, mean (SD), N = 7, read-out: Whole blood/plasma Cmax ratio): 31.9 | AUC(0-inf) [2, 6]: 58600 ng·h/mL | AUC(0-t) [2, 6]: 58500 ng·h/mL | Cmax [2, 6]: 6720 ng/mL | clearance [2, 6]: 13.5 mL/min | Vd ([2]; human, whole blood, single 1-hr IV infusion 25 mg/m^2, geometric mean (CV), N = 7, read-out: Vss): 9.1 L | half-life ([2]; human, whole blood, single 1-hr IV infusion 25 mg/m^2, mean (SD), N = 7): 13.9 h | whole blood CL as share of hepatic blood flow ([2]; single dose 25 mg/m^2): approximately 1% | Exposure ratio (AUC∞) of pevonedistat vs. total drug-related material ([2]; whole blood, single 1-h IV infusion 25 mg/m^2, mean): 0.44 | role of CYP3A in metabolism (CYP3A): substrate of CYP3A; also recorded: major role for CYP3A | Back pain, Any grade ([3]; human, in vivo): 1 (12.5) n (%) | Back pain, Grade ≥ 3 ([3]; human, in vivo): 0 n (%) | Constipation, Any grade ([3]; human, in vivo): 1 (12.5) n (%) | Constipation, Grade ≥ 3 ([3]; human, in vivo): 0 n (%) | Dizziness, Any grade ([3]; human, in vivo): 1 (12.5) n (%) | Dizziness, Grade ≥ 3 ([3]; human, in vivo): 0 n (%) | Sarcoma, Any grade ([3]; human, in vivo): 1 (12.5) n (%) | Sarcoma, Grade ≥ 3 ([3]; human, in vivo): 1 (12.5)^a n (%) | Serious TEAEs, patients ([3]; human, in vivo): 1 (12.5) n (%) | Serious TEAEs: Drug-related, patients ([3]; human, in vivo): 0 (0.0) n (%) | Serious TEAEs: Resulting in study discontinuation, patients ([3]; human, in vivo): 0 (0.0) n (%) | TEAEs: Grade ≥ 3, patients ([3]; human, in vivo): 1 (12.5) n (%) | TEAEs: Grade ≥ 3 drug-related, patients ([3]; human, in vivo): 0 (0.0) n (%) | Urinary retention, Any grade ([3]; human, in vivo): 1 (12.5) n (%) | Urinary retention, Grade ≥ 3 ([3]; human, in vivo): 0 n (%) | Vomiting, Any grade ([3]; human, in vivo): 1 (12.5) n (%) | Vomiting, Grade ≥ 3 ([3]; human, in vivo): 0 n (%) | Serious TEAEs, patients ([3]; in vivo): no serious TEAEs | On-study deaths, patients [3]: One | On-study deaths, patients ([3]; listed as [^14C]-pevonedistat): 1 (12.5)^a n (%) | CL renal ([4]; human, plasma, iv, 25 mg/m^2): 13.3 mL/min | AUC(0-inf) [4, 7]: 1460 ng·h/mL | AUC(0-t) [4, 7]: 1410 ng·h/mL | Cmax [4, 7]: 218 ng/mL | clearance [4, 7]: 537 mL/min | Vd ([4]; human, plasma, single 1-h IV infusion 25 mg/m^2, geometric mean (CV), N = 7, read-out: Vss): 296 L | half-life ([4]; human, plasma, single 1-h IV infusion 25 mg/m^2, mean (SD), N = 7): 8.4 h | Exposure ratio (AUC∞) of pevonedistat vs. total drug-related material ([4]; plasma, single 1-h IV infusion 25 mg/m^2, mean): 0.41 | CLR as share of pevonedistat total plasma clearance ([4]; single dose 25 mg/m^2): approximately 2.5% | systemic exposure of unchanged pevonedistat as share of drug-related material ([4]; single dose 25 mg/m^2, part A): 41% | tumor growth [5]: tumor growth inhibition
